According to patent US20260231994A1, “TASTE-ENHANCING COMPOSITION, METHOD FOR PRODUCING SAME, FOOD PRODUCT, AND METHOD FOR ENHANCING TASTE OF FOOD PRODUCT” (HOUSE FOODS GROUP INC., priority 2023, published 2026):

Experiments:
Format in all cases: in vivo
[1] = Experiment 6 sensory evaluation of cyclic dipeptides, “boosting of last flavor (aftertaste)”
Procedure, shortened: (§1)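 Reduced-sodium curry roux (44 g in 300 g hot water) was spiked with cyclic dipeptide solutions matching heat-treated coriander or paprika levels, at 0.5% or 1.0% (w/w) final. Three evaluators scored each sample against unspiked reduced-sodium and common roux. Mean scores were graded F to AA.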

[2] = Experiment 6 sensory evaluation of cyclic dipeptides, “middle fullness (enhanced thickness)”
Procedure, shortened: as §1

[3] = Experiment 6 sensory evaluation of cyclic dipeptides, “top sharp saltiness”
Procedure, shortened: as §1

[4] = Additive amount coriander 0.5%, reduced-sodium curry roux
[5] = heat-treated coriander equivalent aqueous solution of cyclic dipeptide, final 1.0% (w/w) in reduced-sodium curry roux dispersion
[6] = heat-treated coriander equivalent aqueous solution of cyclic dipeptide, final 1.0% (w/w) in reduced-sodium curry roux dispersion, 3 evaluators
[7] = Additive amount coriander 0.5% (heat-treated coriander equivalent aqueous solution, final 0.5% (w/w)), reduced-sodium curry roux
[8] = Additive amount paprika 0.5%, reduced-sodium curry roux
[9] = heat-treated paprika equivalent aqueous solution of cyclic dipeptide, final 1.0% (w/w) in reduced-sodium curry roux dispersion
[10] = heat-treated paprika equivalent aqueous solution of cyclic dipeptide, final 1.0% (w/w) in reduced-sodium curry roux dispersion, 3 evaluators
[11] = Additive amount paprika 0.5% (heat-treated paprika equivalent aqueous solution, final 0.5% (w/w)), reduced-sodium curry roux

Substance | Bosting of last flavor Average [1, 4] [points] | Bosting of last flavor Evaluation [1, 4] | Bosting of last flavor Evaluation [1, 5] | Bosting of last flavor Average [1, 6] [points] | Middle fullness Average [2, 4] [points] | Middle fullness Evaluation [2, 4] | Middle fullness Evaluation [2, 5] | Middle fullness Average [2, 6] [points] | Top sharp saltiness Average [3, 7] [points] | Top sharp saltiness Evaluation [3, 4] | Top sharp saltiness Evaluation [3, 5] | Top sharp saltiness Average [3, 6] [points] | Bosting of last flavor Average [1, 8] [points] | Bosting of last flavor Evaluation [1, 8] | Bosting of last flavor Evaluation [1, 9] | Bosting of last flavor Average [1, 10] [points] | Middle fullness Average [2, 8] [points] | Middle fullness Evaluation [2, 8] | Middle fullness Evaluation [2, 9] | Middle fullness Average [2, 10] [points] | other results
cyclic (Gly-Ser) [Coriander ID 5] | 2.2 | B (“B” when it was 2.0 or higher and 2.5 or lower) | B (“B” when it was 2.0 or higher and 2.5 or lower) | 2.3 | 2.0 | B (“B” when it was 2.0 or higher and 2.5 or lower) | B (“B” when it was 2.0 or higher and 2.5 or lower) | 2.3 | 1.7 | C (“C” when it was 1.1 or higher and 1.9 or lower) | C (“C” when it was 1.1 or higher and 1.9 or lower) | 1.8 | – | – | – | – | – | – | – | – | –
cyclic (Gly-Thr) [Coriander ID 60] | 3.2 | AA (“AA” when it was 3.0 or higher) | B (“B” when it was 2.0 or higher and 2.5 or lower) | 2.5 | 3.2 | AA (“AA” when it was 3.0 or higher) | A (“A” when it was 2.6 or higher and 2.9 or lower) | 2.7 | 3.3 | AA (“AA” when it was 3.0 or higher) | B (“B” when it was 2.0 or higher and 2.5 or lower) | 2.0 | – | – | – | – | – | – | – | – | –
cyclic (Gly-Tyr) [Coriander ID 44] | 2.3 | B (“B” when it was 2.0 or higher and 2.5 or lower) | A (“A” when it was 2.6 or higher and 2.9 or lower) | 2.8 | 2.0 | B (“B” when it was 2.0 or higher and 2.5 or lower) | B (“B” when it was 2.0 or higher and 2.5 or lower) | 2.2 | 1.7 | C (“C” when it was 1.1 or higher and 1.9 or lower) | B (“B” when it was 2.0 or higher and 2.5 or lower) | 2.2 | – | – | – | – | – | – | – | – | –
cyclic (Leu/Ile-His) [Coriander ID 52] | 2.8 | A (“A” when it was 2.6 or higher and 2.9 or lower) | AA (“AA” when it was 3.0 or higher) | 3.0 | 3.2 | AA (“AA” when it was 3.0 or higher) | A (“A” when it was 2.6 or higher and 2.9 or lower) | 2.7 | 3.3 | AA (“AA” when it was 3.0 or higher) | B (“B” when it was 2.0 or higher and 2.5 or lower) | 2.3 | – | – | – | – | – | – | – | – | –
cyclic (Leu/Ile-Leu/Ile) [Coriander ID 1] | – | – | – | – | – | – | – | – | – | – | – | – | 3.0 | AA (“AA” when it was 3.0 or higher) | B (“B” when it was 2.0 or higher and 2.5 or lower) | 2.3 | 2.7 | A (“A” when it was 2.6 or higher and 2.9 or lower) | C (“C” when it was 1.1 or higher and 1.9 or lower) | 1.8 | Top sharp saltiness Average [3, 11]: 2.7 points; Top sharp saltiness Evaluation [3, 8]: A (“A” when it was 2.6 or higher and 2.9 or lower); Top sharp saltiness Evaluation [3, 9]: C (“C” when it was 1.1 or higher and 1.9 or lower); Top sharp saltiness Average [3, 10]: 1.7 points
cyclic (Leu/Ile-Ser) [Coriander ID 24] | – | – | – | – | – | – | – | – | – | – | – | – | 2.9 | A (“A” when it was 2.6 or higher and 2.9 or lower) | B (“B” when it was 2.0 or higher and 2.5 or lower) | 2.2 | 3.1 | AA (“AA” when it was 3.0 or higher) | C (“C” when it was 1.1 or higher and 1.9 or lower) | 1.8 | Top sharp saltiness Average [3, 11]: 2.9 points; Top sharp saltiness Evaluation [3, 8]: A (“A” when it was 2.6 or higher and 2.9 or lower); Top sharp saltiness Evaluation [3, 9]: C (“C” when it was 1.1 or higher and 1.9 or lower); Top sharp saltiness Average [3, 10]: 1.7 points
cyclic (Phe-Asp) [Coriander ID 34] | – | – | – | – | – | – | – | – | – | – | – | – | 2.7 | A (“A” when it was 2.6 or higher and 2.9 or lower) | AA (“AA” when it was 3.0 or higher) | 3.2 | 2.8 | A (“A” when it was 2.6 or higher and 2.9 or lower) | AA (“AA” when it was 3.0 or higher) | 3.2 | Top sharp saltiness Average [3, 11]: 3.0 points; Top sharp saltiness Evaluation [3, 8]: AA (“AA” when it was 3.0 or higher); Top sharp saltiness Evaluation [3, 9]: AA (“AA” when it was 3.0 or higher); Top sharp saltiness Average [3, 10]: 3.2 points
cyclic (Phe-Phe) [Coriander ID 43] | 3.2 | AA (“AA” when it was 3.0 or higher) | A (“A” when it was 2.6 or higher and 2.9 or lower) | 2.7 | 2.3 | B (“B” when it was 2.0 or higher and 2.5 or lower) | A (“A” when it was 2.6 or higher and 2.9 or lower) | 2.7 | 2.3 | B (“B” when it was 2.0 or higher and 2.5 or lower) | A (“A” when it was 2.6 or higher and 2.9 or lower) | 2.8 | – | – | – | – | – | – | – | – | –
cyclic (Phe-Ser) | – | – | – | – | – | – | – | – | – | – | – | – | 3.0 | AA (“AA” when it was 3.0 or higher) | B (“B” when it was 2.0 or higher and 2.5 or lower) | 2.3 | 2.8 | A (“A” when it was 2.6 or higher and 2.9 or lower) | B (“B” when it was 2.0 or higher and 2.5 or lower) | 2.3 | Top sharp saltiness Average [3, 11]: 2.3 points; Top sharp saltiness Evaluation [3, 8]: B (“B” when it was 2.0 or higher and 2.5 or lower); Top sharp saltiness Evaluation [3, 9]: B (“B” when it was 2.0 or higher and 2.5 or lower); Top sharp saltiness Average [3, 10]: 2.2 points
cyclic (Phe-Thr) [Coriander ID 37] | – | – | – | – | – | – | – | – | – | – | – | – | 2.7 | A (“A” when it was 2.6 or higher and 2.9 or lower) | B (“B” when it was 2.0 or higher and 2.5 or lower) | 2.3 | 2.5 | B (“B” when it was 2.0 or higher and 2.5 or lower) | B (“B” when it was 2.0 or higher and 2.5 or lower) | 2.2 | Top sharp saltiness Average [3, 11]: 1.8 points; Top sharp saltiness Evaluation [3, 8]: C (“C” when it was 1.1 or higher and 1.9 or lower); Top sharp saltiness Evaluation [3, 9]: B (“B” when it was 2.0 or higher and 2.5 or lower); Top sharp saltiness Average [3, 10]: 2.3 points
